In brackets after ≈: the same amount, converted by molar mass. Activity calls are given as the source filed them. The calls are words filed in the database; no cut-off is given here.
What was measured:
[1] = molecular target: Human immunodeficiency virus type 1 reverse transcriptase (Human immunodeficiency virus 1) (UniProt Q72547); assay: Inhibition of HIV1 reverse transcriptase assessed as [3H]dTTP incorporation up to 50 ug/ml by liquid scintillation counting
[2] = Cytotoxicity against human HeLa Ohio cells assessed as maximum non-toxic dose after 24 hrs by neutral red staining; format: cell-based; conditions: read-out: Activity
[3] = tested on: rhinovirus A1B; assay: Antiviral activity against HRV1B replication in human Hela Ohio cells assessed as virus-induced cytopathic effect at 50 ug/ml after 24 hrs at 33 degC by light microscopy; format: functional, Human rhinovirus 1B
[4] = Cytotoxicity against human HeLaS3 cells assessed as maximum non-toxic dose after 24 hrs by neutral red staining; format: cell-based, HeLa S3; conditions: read-out: Activity
[5] = tested on: Sindbis virus; assay: Antiviral activity against Sindbis virus replication in human HelaS3 cells assessed as virus-induced cytopathic effect at 20 ug/ml after 24 hrs at 37 degC by light microscopy; format: functional
[6] = Cytotoxicity against human C8166 cells after 5 to 7 days by MTT-formazan method; format: cell-based; conditions: read-out: TC50 (the source's name)
[7] = tested on: Human immunodeficiency virus 1; assay: Antiviral activity against HIV1 3B replication in human C8166 cells at 100 ug/ml after 5 to 7 days by MTT-formazan method; format: functional
[8] = tested on: Human immunodeficiency virus 1; assay: Antiviral activity against HIV1 3B replication in human C8166 cells at 20 ug/ml after 5 to 7 days by MTT-formazan method; format: functional
[9] = tested on: rhinovirus A1B; assay: Antiviral activity against HRV1B replication in human Hela Ohio cells assessed as virus-induced cytopathic effect at 20 ug/ml after 24 hrs at 33 degC by light microscopy; format: functional, Human rhinovirus 1B
[10] = tested on: Sindbis virus; assay: Antiviral activity against Sindbis virus replication in human HelaS3 cells assessed as virus-induced cytopathic effect at 4 ug/ml after 24 hrs at 37 degC by light microscopy; format: functional
[11] = tested on: rhinovirus A1B; assay: Antiviral activity against HRV1B replication in human Hela Ohio cells assessed as inhibition of virus-induced cytopathic effect at 4 ug/ml after 24 hrs at 33 degC by light microscopy; format: functional, Human rhinovirus 1B; conditions: Rhinovirus A
[12] = tested on: rhinovirus A1B; assay: Antiviral activity against HRV1B replication in human Hela Ohio cells assessed as inhibition of virus-induced cytopathic effect at 0.8 ug/ml after 24 hrs at 33 degC by light microscopy; format: functional, organism-based; conditions: Human rhinovirus 1B
[13] = tested on: Human immunodeficiency virus 1; assay: Antiviral activity against HIV1 3B replication in human C8166 cells at 4 ug/ml after 5 to 7 days by MTT-formazan method; format: functional
[14] = tested on: Human immunodeficiency virus 1; assay: Antiviral activity against HIV1 3B replication in human C8166 cells at 100 uM after 5 to 7 days by MTT-formazan method; format: functional
[15] = tested on: Human immunodeficiency virus 1; assay: Antiviral activity against HIV1 3B replication in human C8166 cells at 0.016 ug/ml after 5 to 7 days by MTT-formazan method; format: functional
[16] = tested on: Human immunodeficiency virus 1; assay: Antiviral activity against HIV1 3B replication in human C8166 cells at 40 ug/ml after 5 to 7 days by MTT-formazan method; format: functional
[17] = tested on: Human immunodeficiency virus 1; assay: Antiviral activity against HIV1 3B replication in human C8166 cells at 8 ug/ml after 5 to 7 days by MTT-formazan method; format: functional
[18] = tested on: Sindbis virus; assay: Antiviral activity against Sindbis virus replication in human HelaS3 cells assessed as virus-induced cytopathic effect at 50 ug/ml after 24 hrs at 37 degC by light microscopy; format: functional
[19] = tested on: Human immunodeficiency virus 1; assay: Antiviral activity against HIV1 3B replication in human C8166 cells at 0.8 ug/ml after 5 to 7 days by MTT-formazan method; format: functional

| SMILES | Activity [1] | MNTC at 24 h [2] [µg/mL] | Activity [3] [%] | MNTC at 24 h [4] [µg/mL] | Activity [5] [%] | CC50 [6] [µg/mL] | Activity [7] [%] | Activity [8] [%] | Activity [9] [%] | Activity [10] [%] | inhibition at 4 µg/mL [11] [%] | Activity [12] | Activity [13] [%] | Activity [14] [%] | Activity [15] [%] | Activity [16] [%] | Activity [17] [%] | Activity [18] [%] | Activity [19] [%] |
| --- | --- | --- | --- | --- | --- | --- | --- | --- | --- | --- | --- | --- | --- | --- | --- | --- | --- | --- | --- |
| C[C@@H]1CC[C@]2(C(=O)O)CC[C@]3(C)C(=CC[C@@H]4[C@@]5(C)C[C@@H](O)[C@H](O)[C@@](C)(COC(=O)/C=C/c6ccc(O)cc6)[C@@H]5CC[C@]43C)[C@@H]2[C@]1(C)O | inactive | 50 | 100 | 20 | 100 | 30 (≈ 46.1 µM) | 0 | 0 |  |  |  |  |  |  |  |  |  |  |  |
| C[C@@H]1CC[C@]2(C(=O)O)CC[C@]3(C)C(=CC[C@@H]4[C@@]5(C)C[C@@H](O)[C@H](OC(=O)/C=C/c6ccc(O)c(O)c6)C(C)(C)[C@@H]5CC[C@]43C)[C@@H]2[C@]1(C)O | inactive | 20 |  | 4 |  | 10 (≈ 15.4 µM) |  |  | 50 | 100 | < 25 | inactive | 1 |  |  |  |  |  |  |
| C[C@@H]1CC[C@]2(C(=O)O)CC[C@]3(C)C(=CC[C@@H]4[C@@]5(C)CC[C@H](OC(=O)/C=C/c6ccc(O)cc6)[C@@](C)(CO)[C@@H]5CC[C@]43C)[C@@H]2[C@]1(C)O | inactive | 20 |  | 20 | 100 | 30 (≈ 47.3 µM) | 0 | 0 | 100 |  |  |  |  |  |  |  |  |  |  |
| Cc1cn([C@H]2C[C@H](N=[N+]=[N-])[C@@H](CO)O2)c(=O)[nH]c1=O [ZIDOVUDINE] |  |  |  |  |  | > 1000 |  |  |  |  |  |  |  | 100 | 49 |  |  |  |  |
| C[C@@H]1CC[C@]2(C(=O)O)CC[C@]3(C)C(=CC[C@@H]4[C@@]5(C)C[C@@H](O)[C@@H](O)C(C)(C)[C@@H]5CC[C@]43C)[C@@H]2[C@]1(C)O [EUSCAPHIC ACID] | inactive | 50 | 100 | 20 | 100 | 20 (≈ 40.9 µM) |  |  |  |  |  |  |  |  |  | 0 | 1 |  |  |
| C[C@@H]1CC[C@]2(C(=O)O)CC[C@]3(C)C(=CC[C@@H]4[C@@]5(C)C[C@@H](O)[C@H](O)[C@@](C)(COC(=O)/C=C\c6ccc(O)cc6)[C@@H]5CC[C@]43C)[C@@H]2[C@]1(C)O | inactive | 20 |  | 20 | 100 | 50 (≈ 76.8 µM) | 0 | 0 | 100 |  |  |  |  |  |  |  |  |  |  |
| C[C@@H]1CC[C@]2(C(=O)O)CC[C@]3(C)C(=CC[C@@H]4[C@@]5(C)C[C@@H](O)[C@H](O)[C@@](C)(CO)[C@@H]5CC[C@]43C)[C@@H]2[C@]1(C)O | inactive | 50 | 100 | 50 |  | 20 (≈ 39.6 µM) |  |  |  |  |  |  |  |  |  | 0 | 1 | 100 |  |
| C[C@@H]1CC[C@]2(C(=O)O)CC[C@]3(C)C(=CC[C@@H]4[C@@]5(C)CC[C@H](O)C(C)(C)[C@@H]5[C@H](O)C[C@]43C)[C@@H]2[C@]1(C)O | inactive | 20 |  | 20 | 100 | 2 (≈ 4.09 µM) |  |  | 100 |  |  |  | 0 |  |  |  |  |  | 1 |

— ChEMBL document CHEMBL1149730, “Constituents of Eriobotrya japonica. A study of their antiviral properties” (J Nat Prod, 1992)
